Experimental data taken from PubChem BioAssay (NCI).
“And” between values parts separate entries of the source, which are not always exact repeats. Equal entries are not always repeated.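 These data come from cells grown in 96-well plates and exposed to compound for 48 hours at five concentrations. TGI is the concentration that stops growth completely.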

Columns and labels:
Test in all cases: DTP human tumour cell line panel, 48 h
ACHN renal = test system: ACHN renal
HS 578T breast = test system: HS 578T breast
HT29 colon = test system: HT29 colon
K-562 leukemia = test system: K-562 leukemia
KM12 colon = test system: KM12 colon
OVCAR-5 ovarian = test system: OVCAR-5 ovarian
RPMI-8226 leukemia = test system: RPMI-8226 leukemia
SF-268 CNS = test system: SF-268 CNS
HCC-2998 colon = test system: HCC-2998 colon
MCF7 breast = test system: MCF7 breast

SMILES | TGI (ACHN renal) | TGI (HS 578T breast) | TGI (HT29 colon) | TGI (K-562 leukemia) | TGI (KM12 colon) | TGI (OVCAR-5 ovarian) | TGI (RPMI-8226 leukemia) | TGI (SF-268 CNS) | TGI (HCC-2998 colon) | TGI (MCF7 breast)
CCOC(=O)c1c[nH]c(C(=O)OCC)c1-c1cccn1-c1ccccc1 | > 100 µM | 59 µM | 89.9 µM | 45.4 µM | 24.6 µM | > 100 µM | 52.6 µM | > 100 µM |  | 
O=S(O)CCCCCSSc1ccccc1 | > 100 µM |  | > 100 µM | > 100 µM | > 100 µM | > 100 µM | 56.4 µM | 85.5 µM | > 100 µM | 
Cc1ccc(S(=O)c2cccs2)cc1 (centres undefined) | > 100 µM |  | > 100 µM | > 100 µM | > 100 µM | > 100 µM | > 100 µM | > 100 µM |  | > 100 µM
Brc1ccc(C2C3CSc4ccccc4C3=NN2c2ccccc2)cc1 (centres undefined) |  | > 100 µM | > 100 µM | > 100 µM | > 100 µM |  | > 100 µM | > 100 µM |  | > 100 µM
Cc1c(O)c(=O)ccn1CCN | > 100 µM |  | > 100 µM | > 100 µM | > 100 µM | > 100 µM | > 100 µM | > 100 µM | > 100 µM | 
CN(C)CCNc1ccc2ncn3c4ccccc4c(=O)c1c23 | 10.5 µM |  | 10.6 µM | > 100 µM | 13.3 µM | 5.35 µM | > 100 µM | 20.2 µM |  | 
N#C/C(=C\c1ccncc1)c1csc2ccccc12 |  |  | 48.2 µM | 50.8 µM | 37.8 µM | > 89.6 µM | 52.3 µM | 82.5 µM | 35.8 µM | > 96.7 µM
O=NN1C(c2ccccc2)CNC(=O)CC1c1ccccc1 (centres undefined) |  |  | > 100 µM | > 100 µM | > 100 µM | > 100 µM | > 100 µM | > 100 µM | > 100 µM | > 100 µM
COc1cc2c(c(OC)c1OC)-c1ccc(SC)c(=O)cc1[C@@H](NCc1ccc(F)cc1)CC2 | 75 µM and 49.2 µM |  | < 0.0075 µM | 75 µM and > 100 µM |  | 75 µM and > 100 µM | 31.2 µM |  | 11.3 µM | 
C=CCCC1(O)C(O)C(CO)O[C@H](O[C@@]2(CO)OC(CO)C(O)C2O)C1O (some centres undefined) | > 100 µM |  | > 100 µM | > 100 µM | > 100 µM | > 100 µM | > 100 µM | > 100 µM |  | > 100 µM
CC1=CC2C(C=C1)S(=O)(=O)N1CC21c1ccccc1 (centres undefined) | > 100 µM |  | > 100 µM | > 100 µM | > 100 µM | > 100 µM | > 100 µM | > 100 µM | > 100 µM | 
O=C(Cc1ccccc1)NN1C(=O)C(Cl)C1c1ccccc1Cl (centres undefined) | > 100 µM |  | > 100 µM | > 100 µM | > 100 µM | > 100 µM | 51.1 µM | > 100 µM | > 100 µM | 
C[C@]12C=CC(=O)C=C1CC[C@@H]1[C@@H]2CC[C@@]2(C)[C@H]1CC[C@]2(O)C(N)=O | > 100 µM | > 100 µM | > 100 µM | > 100 µM | > 100 µM | > 100 µM | > 100 µM | > 100 µM | > 100 µM | 
O=Cc1c[nH]c2c(=O)[nH]cnc12 | > 100 µM |  | > 100 µM | > 100 µM | > 100 µM |  | > 100 µM | > 100 µM | > 100 µM | 
C[N+](C)(CCCCCC[N+](C)(C)CCCN1C(=O)c2cccc3cccc(c23)C1=O)CCCN1C(=O)c2cccc3cccc(c23)C1=O | > 100 µM | > 100 µM | > 100 µM | > 100 µM | > 100 µM | > 100 µM | > 100 µM | > 100 µM |  | > 100 µM
O=C(O)c1nc2ccccc2nc1Nc1ccc(Cl)c(Cl)c1 | > 100 µM |  |  | > 100 µM | 54 µM | > 100 µM | > 100 µM | > 100 µM | 73.5 µM | 
FC(F)(F)c1ccc2c(c1)N(CCCNCCN1CCOCC1)c1ccccc1S2 | 24.7 µM |  | 10.4 µM | 10.2 µM | 25 µM | 23.4 µM | 28.9 µM | 37.2 µM | 4.06 µM | 
O[C@]12C=C(c3nccc4c3[nH]c3ccccc34)[C@@H]3CCN(CCCC/C=C\CC1)C[C@@]31CC3/C=C\CCCCN3[C@H]12 (some centres undefined) | 1.05 µM | 2.9 µM | 1.36 µM | 2.84 µM | 1.3 µM | 1.83 µM |  | 8.59 µM | 0.936 µM | 1.83 µM
CC(C)(C)OC(=O)NC1CCCC1C(=O)C1=CCCC1 (centres undefined) | > 100 µM | > 100 µM | > 100 µM | > 100 µM | > 100 µM | > 100 µM | > 100 µM | > 100 µM | > 100 µM | 
CC1=CC(=O)CC2(C)CCC(C(C)CC(=O)CC(C)C)CC12OO (centres undefined) | 30.8 µM and 31.4 µM | 88.3 µM and > 100 µM | 43.2 µM and 31.1 µM | 75 µM and 31.9 µM | 33.2 µM and 29.4 µM | 35.5 µM and 47.5 µM | 76.5 µM and 46.1 µM | 44.1 µM and 32.6 µM |  | 31.9 µM and 31.7 µM
